Data reported in PubChem BioAssay (NCI).
Where “and” joins values, the source holds several entries; their conditions need not be identical. Equal entries are not always repeated.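 Assay format: 96-well plates, 48-hour exposure. GI50 is the concentration that inhibits growth by half. The concentration for full growth arrest is given as TGI.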

Legend:
Test in all cases: NCI tumour cell line growth inhibition, 48 h
EKVX NSCLC = system: EKVX NSCLC
SF-539 CNS = system: SF-539 CNS
OVCAR-4 ovarian = system: OVCAR-4 ovarian
HT29 colon = system: HT29 colon
SF-295 CNS = system: SF-295 CNS
MCF7 breast = system: MCF7 breast
SN12C renal = system: SN12C renal
SW-620 colon = system: SW-620 colon
HL-60(TB) leukemia = system: HL-60(TB) leukemia
NCI-H460 lung = system: NCI-H460 lung

Row | SMILES | TGI (EKVX NSCLC) [µM] | TGI (SF-539 CNS) [µM] | TGI (OVCAR-4 ovarian) [µM] | TGI (HT29 colon) [µM] | TGI (SF-295 CNS) [µM] | TGI (MCF7 breast) [µM] | TGI (SN12C renal) | TGI (SW-620 colon) [µM] | TGI (HL-60(TB) leukemia) [µM] | TGI (NCI-H460 lung) [µM] | GI50 (EKVX NSCLC) | GI50 (SF-539 CNS) | GI50 (OVCAR-4 ovarian) [µM] | GI50 (HT29 colon) | GI50 (SF-295 CNS) | GI50 (MCF7 breast) [µM] | GI50 (SN12C renal) | GI50 (HL-60(TB) leukemia) | GI50 (SW-620 colon) [µM]
1 | COc1ccc(/C=N/NC(=S)Nc2cc(C)ccc2OC)cc1 | 59.5 | 49.3 | > 100 | 79.4 | > 100 | > 100 | 68.6 µM | > 100 | 66.7 | – | – | – | – | – | – | – | – | – | –
2 | COc1cccc(N=NN2CCCC2)c1 | > 100 | > 100 | > 100 | – | > 100 | > 100 | > 100 µM | > 100 | > 100 | > 100 | – | – | – | – | – | – | – | – | –
3 | COc1ccc(C23OCC(Cc4cc(OC)c(OC)cc42)C3CO)cc1OC (centres undefined) | > 100 | > 100 | > 100 | – | > 100 | > 100 | – | > 100 | > 100 | > 100 | – | – | – | – | – | – | – | – | –
4 | O=C(c1ccccc1)c1cc(Cl)ccc1NCn1nnc2ccccc21 | > 100 | > 100 | > 100 | > 100 | > 100 | – | > 100 µM | > 100 | 88.8 | > 100 | – | – | – | – | – | – | – | – | –
5 | CCCCCCCCCCCCC1N=C(N)NC2(CCCO2)C1C(=O)OC (centres undefined) | 36.6 | 15.8 | 26.4 | 3.48 | 24.7 | 9.2 | 34.2 µM | 7.65 | – | 8.23 | – | – | – | – | – | – | – | – | –
6 | Cn1c(=O)c2c(nc(N/N=C3/SCC(=O)N3Cc3ccccc3)n2C)n(C)c1=O | > 100 | > 100 | > 100 | > 100 | > 100 | > 100 | > 100 µM | – | – | > 100 | – | – | – | – | – | – | – | – | –
7 | CC[C@@]1(O)C(=O)OCc2c1cc1n(c2=O)Cc2c-1nc1ccccc1c2C=Nc1ccccc1N[C@@H]1c2cc3c(cc2[C@@H](c2cc(OC)c(O)c(OC)c2)[C@H]2C(=O)OC[C@@H]21)OCO3 | > 44.5 | 0.239 | > 62.6 | > 50 | > 50 | – | > 100 µM and 24.6 µM | > 100 | > 100 | – | 3.77 µM and 0.791 µM | 0.0228 µM and < 0.005 µM | 17.2 | 0.327 µM and 0.125 µM | 0.149 µM and 0.134 µM | < 0.005 | 0.0632 µM and 0.0234 µM | 0.0325 µM and 0.192 µM | –
8 | Cc1ccc(NC(=O)C(=O)Cc2cccc[n+]2[O-])cc1C | > 100 | > 100 | > 100 | > 100 | > 100 | – | > 100 µM | > 100 | > 100 | > 100 | – | – | – | – | – | – | – | – | –
9 | CSc1nc(C)c2c(n1)N(c1ccc(Cl)cc1)CC2 | > 100 | > 100 | > 100 | > 100 | > 100 | > 100 | > 100 µM | > 100 | – | > 100 | – | – | – | – | – | – | – | – | –
10 | CC(=O)C(C(C)=O)[C@H]1OC(C)(C)O[C@H]1[C@H]1COC(C)(C)O1 | > 100 | 41.5 | > 100 | > 100 | > 100 | > 100 | > 100 µM | > 100 | – | > 100 | – | – | – | – | – | – | – | – | –
11 | COc1ccc(/C=N/Nc2nnc3c(n2)c2ccccc2c2nn(-c4ccccc4Cl)nc23)cc1 | > 100 | – | > 100 | > 100 | > 100 | – | > 100 µM | > 100 | – | – | – | – | – | – | – | – | – | – | –
12 | CC[C@@]12CCC(=S)N(CCSc3ccccc3)[C@@H]1c1c(n(S(=O)(=O)c3ccc(OC)cc3)c3ccccc13)CC2 | > 100 | > 100 | – | > 100 | > 100 | > 100 | > 100 µM | > 100 | > 100 | > 100 | – | – | – | – | – | – | – | – | –
13 | O=C(/C(=C/c1ccc(O)cc1)c1ccccc1)c1ccccc1 | 45.8 | 30.3 | 55.2 | 32.1 | 33.4 | – | 32.5 µM | 32 | 31.6 | 38.4 | – | – | – | – | – | – | – | – | –
14 | CC(=O)[C@]1(O)Cc2c(O)c3c(c(O)c2[C@@H](OC2CC(N)C(O)C(C)O2)C1)C(=O)c1c(OCc2ccccc2)cccc1C3=O (some centres undefined) | 11.1 | 7.45 | 9.36 | 14.7 | 4.05 | – | 4.65 µM | 2 | – | 6.31 | – | – | – | – | – | – | – | – | –
15 | N#Cc1c(N)nc(Sc2ccccc2N)c(C#N)c1-c1ccccc1 | > 100 | 80.1 | > 100 | > 100 | – | 49.8 | – | > 100 | – | 50.6 | – | – | – | – | – | – | – | – | –
16 | CCN(CC)CCNc1ccc([N+](=O)[O-])c2sc3cc(Cl)ccc3c(=O)c12 | > 100 | 5.25 | – | > 100 | > 100 | > 100 | 6.58 µM | 27.8 | > 100 | – | 10.7 µM | 2.05 µM | – | 1.7 µM | 6.27 µM | 3.28 | 2.05 µM | 11.5 µM | 2.33
17 | COc1ccc2c(c1)CC[C@@H]1C2CC[C@]2(C)C(=C=CP(=O)(O)O)CCC12 (some centres undefined) | > 100 | > 100 | > 100 | > 100 | > 100 | > 100 | > 100 µM | > 100 | – | > 100 | – | – | – | – | – | – | – | – | –
